Results reported in the NIST ThermoML archive (doi:10.1021/acs.jced.7b00904).
Numbers after ± are expanded uncertainties.

Assay: refractive index (Na D-line) (dimensionless); wn = mass fraction of the nth substance listed
Conditions: 101.3 kPa, Liquid, Standard Abbe refractometry

N#C[S-].[K+] [potassium thiocyanate] + O
refractive index
Conditions | 293 K | 298 K | 303 K | 308 K | 313 K
w1 = 0.218 | 1.3754 ± 0.00058 | 1.37475 ± 0.00058 | 1.37415 ± 0.00058 | 1.3731 ± 0.00058 | 1.3728 ± 0.00058
w1 = 0.244 | 1.38075 ± 0.00058 | 1.3802 ± 0.00058 | 1.3796 ± 0.00058 | 1.37855 ± 0.00058 | 1.3779 ± 0.00058
w1 = 0.265 | 1.38565 ± 0.00058 | 1.3852 ± 0.00058 | 1.3844 ± 0.00058 | 1.383 ± 0.00058 | 1.38205 ± 0.00058
w1 = 0.291 | 1.39085 ± 0.00058 | 1.3906 ± 0.00058 | 1.3896 ± 0.00058 | 1.38835 ± 0.00058 | 1.3876 ± 0.00058
w1 = 0.321 | 1.39825 ± 0.00058 | 1.39675 ± 0.00058 | 1.396 ± 0.00058 | 1.3949 ± 0.00058 | 1.39375 ± 0.00058
w1 = 0.359 | 1.4061 ± 0.00058 | 1.4054 ± 0.00058 | 1.4046 ± 0.00058 | 1.4033 ± 0.00058 | 1.40235 ± 0.00058
w1 = 0.381 | 1.41155 ± 0.00058 | 1.4105 ± 0.00058 | 1.4097 ± 0.00059 | 1.4079 ± 0.00059 | 1.40725 ± 0.00058
w1 = 0.406 | 1.41705 ± 0.00058 | 1.41615 ± 0.00059 | 1.4147 ± 0.00059 | 1.4139 ± 0.00058 | 1.41305 ± 0.00059
w1 = 0.42 | 1.41995 ± 0.00058 | 1.41945 ± 0.00059 | 1.4183 ± 0.00059 | 1.41675 ± 0.00059 | 1.41585 ± 0.00058
w1 = 0.435 | 1.42345 ± 0.00059 | 1.423 ± 0.00059 | 1.422 ± 0.00059 | 1.4199 ± 0.00059 | 1.41875 ± 0.00059
w1 = 0.451 | 1.42755 ± 0.00059 | 1.42705 ± 0.00059 | 1.42585 ± 0.00059 | 1.4241 ± 0.00059 | 1.4229 ± 0.00059
w1 = 0.468 | 1.43175 ± 0.00059 | 1.43085 ± 0.00059 | 1.4295 ± 0.00059 | 1.4281 ± 0.00059 | 1.4272 ± 0.00059
w1 = 0.477 | 1.43375 ± 0.00059 | 1.433 ± 0.00059 | 1.4319 ± 0.00059 | 1.43035 ± 0.00059 | 1.4294 ± 0.00059
w1 = 0.487 | 1.4358 ± 0.00059 | 1.4352 ± 0.00059 | 1.4344 ± 0.00059 | 1.43245 ± 0.00059 | 1.4315 ± 0.00059
w1 = 0.497 | 1.43825 ± 0.00059 | 1.43755 ± 0.00059 | 1.43665 ± 0.00059 | 1.4347 ± 0.00059 | 1.43375 ± 0.00059
w1 = 0.507 | 1.441 ± 0.00059 | 1.44045 ± 0.00059 | 1.43855 ± 0.00059 | 1.43715 ± 0.00059 | 1.4362 ± 0.00059
w1 = 0.518 | 1.4437 ± 0.00059 | 1.443 ± 0.00059 | 1.44095 ± 0.00059 | 1.4393 ± 0.00059 | 1.4385 ± 0.00059
w1 = 0.529 | 1.4465 ± 0.00059 | 1.44635 ± 0.00059 | 1.44455 ± 0.00059 | 1.4423 ± 0.00059 | 1.44175 ± 0.00059
w1 = 0.54 | 1.4493 ± 0.00059 | 1.44905 ± 0.00059 | 1.44675 ± 0.00059 | 1.4451 ± 0.00059 | 1.44415 ± 0.00059
w1 = 0.553 | 1.4521 ± 0.00059 | 1.45205 ± 0.00059 | 1.4499 ± 0.0006 | 1.4473 ± 0.00059 | 1.44725 ± 0.00059
w1 = 0.565 | 1.45545 ± 0.00059 | 1.45505 ± 0.00059 | 1.4534 ± 0.00059 | 1.45115 ± 0.00059 | 1.45065 ± 0.00059
w1 = 0.579 | 1.45915 ± 0.00059 | 1.4587 ± 0.00059 | 1.4569 ± 0.0006 | 1.45455 ± 0.00059 | 1.4536 ± 0.00059
w1 = 0.584 | 1.46045 ± 0.00059 | 1.46015 ± 0.00059 | 1.4584 ± 0.0006 | 1.4559 ± 0.00059 | 1.4554 ± 0.00059
w1 = 0.59 | 1.46215 ± 0.00059 | 1.4614 ± 0.00059 | 1.4599 ± 0.0006 | 1.4579 ± 0.0006 | 1.45645 ± 0.00059
w1 = 0.595 | 1.4635 ± 0.00059 | 1.46305 ± 0.00059 | 1.46155 ± 0.0006 | 1.4595 ± 0.00059 | 1.4587 ± 0.00059
w1 = 0.601 | 1.46515 ± 0.00059 | 1.46505 ± 0.00059 | 1.4633 ± 0.0006 | 1.46085 ± 0.0006 | 1.4596 ± 0.00059
w1 = 0.607 | 1.4672 ± 0.00059 | 1.46635 ± 0.00059 | 1.465 ± 0.0006 | 1.46265 ± 0.00059 | 1.462 ± 0.00059
w1 = 0.613 | 1.4681 ± 0.00059 | 1.46775 ± 0.00059 | 1.4663 ± 0.0006 | 1.46415 ± 0.0006 | 1.46305 ± 0.00059
w1 = 0.62 | 1.4694 ± 0.00059 | 1.4693 ± 0.00059 | 1.4682 ± 0.00059 | 1.46645 ± 0.0006 | 1.46495 ± 0.00059
w1 = 0.626 | 1.47155 ± 0.00059 | 1.47145 ± 0.00059 | 1.46985 ± 0.0006 | 1.46845 ± 0.00059 | 1.46715 ± 0.0006
w1 = 0.632 | 1.4733 ± 0.00059 | 1.47285 ± 0.00059 | 1.4721 ± 0.0006 | 1.4698 ± 0.0006 | 1.4689 ± 0.00059
w1 = 0.639 | 1.47505 ± 0.00059 | 1.4747 ± 0.00059 | 1.47385 ± 0.00059 | 1.47195 ± 0.0006 | 1.4704 ± 0.00059
w1 = 0.646 | 1.4771 ± 0.00059 | 1.47675 ± 0.00059 | 1.4757 ± 0.0006 | 1.47355 ± 0.0006 | 1.4724 ± 0.0006
w1 = 0.652 | 1.478 ± 0.00059 | 1.47805 ± 0.00059 | 1.4773 ± 0.00059 | 1.4761 ± 0.0006 | 1.4745 ± 0.0006
w1 = 0.659 | 1.4809 ± 0.00059 | 1.4805 ± 0.00059 | 1.4795 ± 0.00059 | 1.4784 ± 0.0006 | 1.47655 ± 0.0006
w1 = 0.667 | 1.48275 ± 0.00059 | 1.4826 ± 0.00059 | 1.4813 ± 0.0006 | 1.48045 ± 0.0006 | 1.47875 ± 0.0006
w1 = 0.674 | 1.48485 ± 0.0006 | 1.4846 ± 0.0006 | 1.4835 ± 0.0006 | 1.48215 ± 0.0006 | 1.48105 ± 0.0006
w1 = 0.681 | 1.4875 ± 0.00059 | 1.48685 ± 0.00059 | 1.48595 ± 0.0006 | 1.48455 ± 0.0006 | 1.483 ± 0.0006
w1 = 0.689 | 1.4891 ± 0.0006 | 1.4885 ± 0.00059 | 1.4876 ± 0.0006 | 1.4865 ± 0.0006 | 1.4855 ± 0.0006
w1 = 0.697 | 1.49135 ± 0.0006 | 1.4907 ± 0.0006 | 1.4896 ± 0.0006 | 1.4884 ± 0.0006 | 1.4871 ± 0.0006
w1 = 0.705 | 1.49315 ± 0.0006 | 1.4922 ± 0.0006 | 1.49135 ± 0.0006 | 1.49005 ± 0.0006 | 1.48924 ± 0.0006
